According to patent US8735620B2, “Processes for preparing (E)-styrylbenzylsulfone compounds and uses thereof for treating proliferative disorders” (priority 2008, dated 2014):

Experiments:
HCT-116 = assay: Tumor cell killing, HCT-116; type: cell-based, human; conditions: HCT-116, COLO-RECTAL; read-out: Tumor cell killing (IC50) concentration
Procedure: (§1) Tissue Culture and Reagents: Paclitaxel was purchased from Sigma. Cell lines were purchased from ATCC. Cell lines were routinely grown in DMEM or RPM1 (CellGro) supplemented with 10% fetal bovine serum (Atlas) and 1 unit/mL penicillin-streptomycin (Gibco).
(§2) A number of tumor cell lines were tested using a dose response end point assay system. The cells were grown in either DMEM or RPMI supplemented with 10% fetal bovine serum and 1 unit/mL Penicillin-Streptomycin solution. The tumor cells were plated into 6 well dishes at a cell density of 1.0×10^5 cells/mL/well and compounds were added 24 h later at various concentrations. Cell counts were determined from duplicate wells after 96 h of treatment. The total number of viable cells was determined by trypan blue exclusion.

K562 = assay: Tumor cell killing, K562; type: cell-based, human; conditions: K562, CML; read-out: Tumor cell killing (IC50) concentration
Procedure: as §1, §2

2008 = assay: Tumor cell killing, 2008; type: cell-based, human; conditions: 2008, Ovarian; read-out: Tumor cell killing (IC50) concentration
Procedure: as §1, §2

BT20 = assay: Soft agar colony formation, BT20; type: cell-based, human; conditions: BT20, dose dependent
DU145 = assay: Soft agar colony formation, DU145; type: cell-based, human; conditions: DU145, dose dependent
[1] = test system: human vascular endothelial cells (HUVEC); assay: Cell cycle analysis by flow cytometry, normal cells; type: cell-based; conditions: 20 nM, 24 hr intervals
Procedure: (§3) FIG. 2 Preferential tumor cell killing activity of 6aa. A. Cell Cycle analyses. Normal (HUVEC) and tumor cells (DU145) were treated with 20 nM concentration of 6aa and incubated in medium containing 10% fetal bovine serum. At 24 hr intervals, the cells were fixed, stained with propidium iodide and analyzed for their DNA content by flow Cytometry. B. Induction of apoptosis in normal (HUVEC) and tumor cells (DU145) was assessed by western blot analysis of cell lysates treated with 6aa for 24, 48 and 72 h. The Western blots were probed with anti-PARP antibodies to assess the cleavage of the protein.
(§4) Human prostate tumor cells, DU145 cells, and normal diploid human lung fibroblasts, HFL-1 cells, were grown in DMEM (Cellgro) supplemented with 10% fetal bovine serum and 1 unit/mL penicillin-streptomycin. The cells were plated onto 100 mm^2 dishes at a cell density of 1.0×10^6 cells/dish, and 24 h later, they were treated with 2.5 μM of the compound. The cells were harvested 24, 48 and 72 h after treatment. The cells were removed from the plate by trypsin digestion and combined with the non-attached cells found in the medium. The cell pellets were washed in phosphate buffered saline (PBS), and fixed in ice cold 70% ethanol for at least 24 h. […] The stained cells were then analyzed on a Becton-Dickinson (BD) (FACScan) flow cytometer and the data analyzed by cell cycle analysis software (Modfit, BD).

[2] = test system: DU145 (prostate cancer) cells; assay: Cell cycle analysis by flow cytometry, tumor cells; type: cell-based, human; conditions: DU145, 20 nM, 24 hr intervals
Procedure: as §3, §4

[3] = test system: BT20 human breast carcinoma xenograft; assay: Nude mouse xenograft assay
Procedure: Female athymic (NCr-nu/nu) mice were injected subcutaneously with 0.5-1×10^7 ER-negative human breast tumor cells (BT-20) in 0.2 mL of PBS and the tumors allowed to grow to a size of 100-150 mm^3 in size in about 14 days. The mice were then paired such that the pairs harbored equal sized tumors, which were then used to test the therapeutic effects of 6s and 6ab. A Of the pairs, the animals were treated with either 50 mg/kg 6s following a Q4D schedule or 25 mg/kg using a Q2D schedule or vehicle (DMSO) control. The tumor size was then measured on alternate days in two dimensions and the volume determined using either of the following equations: 1: V=(L×(S^2))π/6); where L is the longer and S is the shorter of the two measurements. B. 6ab was dissolved in PBS and was administered intravenously (50 mg/kg) through the tail vein on every alternate day. Tumor measurements were done as in materials and methods.
Female athymic (NCR-nu/nu, Taconic) nude mice were injected with 0.5-1.0×10^7 BT20 cells subcutaneously in the hind leg using a 1 mL tuberculin syringe equipped with a 271/2 gauge needle. Approximately 14 days later, mice were paired (N=8) and injected with 6ab or Phosphate buffered saline as the vehicle control. The intravenous injections were performed in the mouse tail vein using a 1 mL tuberculin syringe equipped with a 30 gauge needle. The animals were injected following a Q2D×3 schedule. Tumor measurements (two dimensions) were done three times per week using traceable digital vernier calipers (Fisher).

| SMILES | IC50 (HCT-116) [nM] | IC50 (K562) [nM] | IC50 2008 [nM] | growth of tumor cells in soft agar (BT20) | growth of tumor cells in soft agar (DU145) | effect on cell cycle progression [1] | effect on cell cycle progression [2] | fold increase in tumor volume ([3]; 25 mg/kg Q2D, IP, 22 day period, vehicle 5 fold) [fold] | final tumor volume ([3]; 25 mg/kg Q2D, IP, after 22 days, from 67.5 mm^3) [mm^3] | tolerability by body weights and physical observations ([3]; 50 mg/kg Q4D or 25 mg/kg Q2D, IP) | fold increase in average tumor volume ([3]; 50 mg/kg Q4D, IP, 22 day period, vehicle 5 fold) [fold] | final average tumor volume ([3]; 50 mg/kg Q4D, IP, after 22 days, from 74 mm^3) [mm^3] | tumor volume response of the majority of the mice ([3]; 8 mice per group) |
| --- | --- | --- | --- | --- | --- | --- | --- | --- | --- | --- | --- | --- | --- |
| COc1cc(OC)c(/C=C/S(=O)(=O)Cc2ccc(OC)c(O)c2)c(OC)c1 [6aa, (E)-2,4,6-Trimethoxystyryl-3-Hydroxy-4-Methoxybenzyl Sulfone] | 9 | 4 | 5 | complete inhibition of the growth of tumor cells | complete inhibition of the growth of tumor cells | block of their cell cycle progression in the G1 phase | gradually accumulated in the G2/M phase |  |  |  |  |  |  |
| COc1ccc(CS(=O)(=O)/C=C/c2c(OC)cc(OC)cc2OC)cc1 [6s, (E)-2,4,6-Trimethoxystyryl-4-Methoxybenzyl sulfone] |  |  |  |  |  |  |  | 2.5 | 165 | well tolerated | 2.9 | 217 | growth arrest or a gradual reduction in their tumor volume |
